Assay results as given in patent US9526713B2, “Use of dencichine in preparation of drug for treating thrombocytopenia” (KUNMING SHENGHUO PHARMACEUTICAL (GROUP) CO., LTD., priority 2013, dated 2016).
Where two headings read alike, the source gives them in different places.

Tested on: ITP model mice
Type: in vivo, BALB/C mice
Conditions: 14 days
Text: Health BALB/C mice (body weight 18˜22 g) are randomly divided into six groups with 12 mice for each group:
Blank group, Model group, Prednisone Acetate Group, Dencichine (high dose, middle dose, and low dose) groups.
Modeling method: blood was taken from orbital vein of BALB/C Mice, followed by EDTA-Na2 Anticoagulation, and then platelets are separated and washed. The prepared platelet suspension solution was mixed uniformly with equal amount of complete Freund's adjuvant and incomplete Freund's adjuvant respectively. In the first week, antigen containing complete Freund's adjuvant is subcutaneously injected into hind paw, back and groin of the guinea pig. Injections are done for 4 times in total, with 5 spots for each injection and 100 μl for each spot. In the 6th week, non-anticoagulated whole blood was taken from the guinea pigs, and was centrifuged for 10 min under 3000 r/min to produce a supernate, which is the anti-mouse platelet serum (GP-APS) of the guinea pigs. The supernate was placed in a water bath (56° C.) for 30 min for complement inactivation, and then the inactivated supernate was diluted with normal saline, followed by test of antibody titers by agar diffusion method, and finally was stored in a refrigerator at −20° C. for later use.
Except the normal group, the mice of the remain five groups are injected with anti-mouse platelet serum (APS) of the guinea pig with a dose of 100 μl/20 g body weight, via intraperitoneal injection, on the 1st, 3rd, 5th, 7th, 9th, 11th and 13th day of the experiment.
The mice of each group are given intragastric administration from the first day. […] The mice of the prednisone acetate group are given intragastric administration of suspension of prednisone acetate at 5 mg/(kg·d). The mice of other groups are given intragastric administration of same volumetric of normal saline at 0.2 ml/20 g body weight. Intragastric administration for once each day, and continuous administration for 14 days.
Observation of the Subcutaneous Purpura:
Class I, minor bleeding are found at injection sites, and hemorrhagic spots are interspersed at other sites;
Class II, overt bleeding are found at injection sites, and ecchymosis and petechiae are found at other sites;

[1] = high dose group (6 mg/kg per Table 8) intragastric
[2] = low dose group (1.5 mg/kg per Table 8) intragastric
[3] = middle dose group (3 mg/kg) intragastric

## N[C@@H](CNC(=O)C(=O)O)C(=O)O [Dencichine, β-N-oxalyl-L-α, β-diaminopropionic acid]
[1]
  Subcutaneous purpura, bleeding degree +: 6 number of mice
  Subcutaneous purpura, bleeding degree ++: 2 number of mice
  Subcutaneous purpura, bleeding degree +++: 0 number of mice
  Subcutaneous purpura, bleeding degree −: 0 number of mice
[2]
  Subcutaneous purpura, bleeding degree +: 4 number of mice
  Subcutaneous purpura, bleeding degree ++: 4 number of mice
  Subcutaneous purpura, bleeding degree +++: 0 number of mice
  Subcutaneous purpura, bleeding degree −: 0 number of mice
[3]
  Subcutaneous purpura, bleeding degree +: 5 number of mice
  Subcutaneous purpura, bleeding degree ++: 3 number of mice
  Subcutaneous purpura, bleeding degree +++: 0 number of mice
  Subcutaneous purpura, bleeding degree −: 0 number of mice
